Results as given in patent US9328369B2, “Process for production of useful substance, and surfactant for use in the process” (priority 2009, dated 2016).

Assays:
Shewanella putrefaciens = assay: Production by secretion in microbial culture system, Shewanella (Table 6); type: cell-based; conditions: surfactant 1 wt %; for Dried cell density: after 48 hours culturing; for Quantitative value of produced recombinant protein: supernatant, protein band around 45 kDa, SDS-PAGE
Protocol: An overnight culture solution (10 ml) of Shewanella putrefaciens was prepared and inoculated in 1 L of a culture solution (10 g of polypeptone (Nihon Pharmaceutical Co., Ltd.), 2 g of yeast extract (Nihon Pharmaceutical Co., Ltd.), 0.5 g of magnesium sulfate heptahydrate, 750 mL of Seawater (Daigo)) and was shake-cultured at 30° C. for 5 hours. In this manner a pre-culture solution was prepared. The pre-culture solution was inoculated in 10 L of a culture solution (200 g of polypeptone (Nihon Pharmaceutical Co., Ltd.), 40 g of yeast extract (Nihon Pharmaceutical Co., Ltd.), 10 g of magnesium sulfate heptahydrate, 7.5 L of Seawater (Daigo)). Culturing thereof was initiated with use of a microbial culture system (ABLE Corporation), while the pH value and the temperature were maintained at 7.3 and 30° C. After 48 hours from the initiation of culturing, the culture solution was recovered and centrifuged. The whole protein of the obtained supernatant fragment was analyzed by SDS-PAGE and the protein band around 45 kDa was quantified.
The dried cell density when the culturing is terminated was determined by the following processes (1) to (5):
The dried cell density was determined by assigning the measuring results in the process (5) and the process (1) and the volume (L) of the culture solution used in the process (2) to the following formula: Dried cell density (g/L)=([measuring result in process (5)]−[measuring result in process (1)])/0.1.
The same processes as in Comparative Example 5 were carried out except that, after culturing in the microbial culture system was initiated, the surfactant A-14 was added to the culture solution in an amount of 1% by weight on the basis of the weight of the culture solution.
The same processes as in Comparative Example 5 were carried out except that, after culturing in the microbial culture system was initiated, the surfactant A-7 was added to the culture solution in an amount of 1% by weight on the basis of the weight of the culture solution.

Escherichia coli (α) = assay: Screening of secretion efficiency, alkaline phosphatase expressing strain; type: cell-based; conditions: surfactant 1 wt %; 37° C., 1 hour; ELISA, anti-His-tag antibody
Excerpt: An alkaline phosphatase (phoA) gene of an Escherichia coli strain W3110 was amplified by the PCR method using primers 1 and 2 (Table 4). After being treated with restriction enzymes NdeI and BamHI, a PCR fragment was bound with an NdeI restriction enzyme site and with a BamHI restriction enzyme site of a pET-22b plasmid (product of Novagen). Then, the plasmid was transformed into an AG1 (DE3) Escherichia coli strain formed by transforming an Escherichia coli strain AG1 (product of TOYOBO Co., LTD.) with use of a λDE3 Lysogenization Kit (product of Novagen). In this manner, an alkaline phosphatase expressing strain (a) was formed.
A pdxA gene of an Escherichia coli strain W3110 was amplified by the PCR method using primers 5 and 6 (Table 4). After being treated with restriction enzymes NdeI and BamHI, a PCR fragment was bound to an NdeI restriction enzyme site and a BamHI restriction enzyme site of a pET-22b plasmid (product of Novagen). Then, the plasmid was transformed into an AG1 (DE3) Escherichia coli strain to form a PdxA expressing strain (γ).
In this manner, culture solutions were prepared.
(2) The strains were collected using a centrifuge (4,000 G, 4° C., 15 minutes). Each of the collected Escherichia coli strains was resuspended in 1 mL of a TB culture solution (product of Difco) and chloramphenicol (30 mg/L) and IPTG (100 μM) were added thereto. Shake culture at 37° C. for 3 hours induced expression of phoA, torA, and pdxA.
(3) Subsequently, harvesting using a centrifuge was carried out again (4,000 G, 4° C., 15 minutes). Each of the collected Escherichia coli strains was resuspended in 2.5 mL of a Tris-NaCl buffer solution (50 mM Tris (pH 7.5), 100 mM NaCl). The resulting solution was divided into 25-μL portions at a time to be mixed with 25 μL of a Tris-NaCl buffer solution.
(4) Then, the solution was allowed to stand at 37° C. for 1 hour. The supernatant solution was collected and diluted in a Tris-NaCl buffer solution to a proper concentration. Here, the quantification of the recombinant protein in the resulting solution was carried out by ELISA assay with use of an anti-His-tag antibody. The sample prior to the centrifugation in the process (3) was treated with ultrasonic waves (200 W, 10 minutes) and the quantification of the recombinant protein therein was similarly carried out by ELISA assay with use of an anti-His-tag antibody. The ratio of lysed bacteria was obtained with use of Escherichia coli (γ), and the secretion efficiencies of the recombinant proteins of Escherichia coli (α) and (β) were calculated by using the following formula. […] Secretion efficiency (%)=100×{(X/Y)−Z}.
In the formula, “X” represents the amount of the recombinant protein in the culture solution after removal of bacterial cells by centrifugation in the case of using Escherichia coli (α) or (β).
“Y” represents the amount of the whole recombinant protein in the culture solution in the case of using Escherichia coli (α) or (β).
“Z” represents the ratio of lysed bacteria obtained with use of Escherichia coli (γ), which is determined by the following formula: Z=Z1/Z2.
In the formula, “Z1” represents the amount of the recombinant protein in the culture solution which remains after removal of bacterial cells by centrifugation in the case of using Escherichia coli (γ).
“Z2” represents the amount of the whole recombinant protein in the culture solution in the case of using Escherichia coli (γ).
Escherichia coli (α) and (β) were each cultured in the same manner as in the above case except that polyoxyethylene (3 mol) tridecyl ether sodium acetate as the surfactant (A) was added right after the resuspension of the Escherichia coli in the buffer solution in the process (3) of A-0, in an amount of 1% by weight on the basis of the weight of the suspension of the bacterium. The secretion efficiency was calculated according to the above-mentioned definition.

Molecule | Dried cell density (Shewanella putrefaciens) | Quantitative value of produced recombinant protein (Shewanella putrefaciens) | Secretion efficiency (%) Escherichia coli (α) (Escherichia coli (α))
CCCCCCCCCCCCCCCC[N+](C)(C)C.[Cl-] [A-14, Cetyl trimethyl ammonium chloride] | 0.23 g/L | <0.01 g/L | 37.8%
Polyoxyethylene(3 mol)tridecyl ether sodium acetate [A-1] |  |  | 100.0%
Sodium cocaminopropionate [A-7] | 2.32 g/L | 0.04 g/L | 85.0%
Cured palm oil fatty acid amidopropyl dimethyl aminoacetate betaine [A-6] |  |  | 87.6%
